Test results published in patent US20250179078A1, “INHIBITORS OF NLRP3” (PTC THERAPEUTICS, INC., priority 2022, published 2025).

Biological target: T1, NLRP3 (Homo sapiens, UniProt Q96P20)
T1 construct: host or cells: THP-1 cells differentiated with PMA
Experiment: IL-1β Secretion Assay (NLRP3-dependent IL1β secretion in THP1 cells)
Format: cell-based
Conditions: PMA-differentiated THP-1 cells; compounds incubated 20 h; 2.5 μM Nigericin 3 h; HTRF IL-1β readout; read-out: IC50 IL-1β Inhibition
Procedure, shortened: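 IL-1β in conditioned media, measured by HTRF after 3 h 2.5 μM nigericin stimulation, gave % inhibition fitted logistically for IC50. Before that, PMA-differentiated (100 ng/mL, 24 h) THP-1 cells were preincubated 20 h with 7 compound concentrations (3-fold serial, DMSO 1:200).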

T1 sequence (Q96P20 whole entry): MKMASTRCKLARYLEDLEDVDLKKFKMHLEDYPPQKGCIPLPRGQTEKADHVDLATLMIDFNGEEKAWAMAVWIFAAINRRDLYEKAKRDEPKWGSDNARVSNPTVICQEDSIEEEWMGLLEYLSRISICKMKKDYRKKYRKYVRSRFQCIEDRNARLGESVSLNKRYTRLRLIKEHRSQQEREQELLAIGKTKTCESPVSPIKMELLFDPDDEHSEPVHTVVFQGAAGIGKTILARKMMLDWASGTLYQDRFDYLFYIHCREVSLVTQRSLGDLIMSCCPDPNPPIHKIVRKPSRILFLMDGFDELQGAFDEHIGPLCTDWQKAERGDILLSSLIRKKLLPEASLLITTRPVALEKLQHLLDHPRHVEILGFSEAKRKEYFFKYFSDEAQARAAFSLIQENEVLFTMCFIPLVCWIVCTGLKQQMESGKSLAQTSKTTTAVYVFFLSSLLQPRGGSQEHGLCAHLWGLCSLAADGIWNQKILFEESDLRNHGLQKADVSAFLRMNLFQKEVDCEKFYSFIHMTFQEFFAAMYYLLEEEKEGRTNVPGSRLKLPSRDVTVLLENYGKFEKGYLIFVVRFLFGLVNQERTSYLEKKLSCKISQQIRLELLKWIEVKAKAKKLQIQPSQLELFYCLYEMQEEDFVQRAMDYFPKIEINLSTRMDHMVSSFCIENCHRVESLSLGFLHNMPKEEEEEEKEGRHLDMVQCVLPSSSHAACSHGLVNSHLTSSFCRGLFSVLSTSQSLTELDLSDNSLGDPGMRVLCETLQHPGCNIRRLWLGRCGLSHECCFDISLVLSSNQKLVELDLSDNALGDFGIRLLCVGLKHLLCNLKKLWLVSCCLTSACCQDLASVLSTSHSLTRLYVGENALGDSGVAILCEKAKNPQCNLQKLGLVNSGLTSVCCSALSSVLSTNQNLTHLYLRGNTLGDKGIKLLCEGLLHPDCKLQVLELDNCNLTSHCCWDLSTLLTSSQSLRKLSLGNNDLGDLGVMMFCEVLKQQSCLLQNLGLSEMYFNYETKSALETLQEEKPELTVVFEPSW

Row | SMILES | IC50 [nM]
1 | CCN1CCC[C@@H](Nc2nnc(-c3ccc(OC)c(OC)c3OC)c3cc(C)nn23)C1 [Compound 370, N-[(3R)-1-ethylpiperidin-3-yl]-2-methyl-4-(2,3,4-trimethoxyphenyl)pyrazolo[1,5-d][1,2,4]triazin-7-amine] | 10 to 100
2 | CCN1CCC[C@@H](Nc2nnc(-c3ccc(OC)cc3OC(F)(F)F)c3cc(C)nn23)C1 [Compound 371, N-[(3R)-1-ethylpiperidin-3-yl]-4-[4-methoxy-2-(trifluoromethoxy)phenyl]-2-methylpyrazolo[1,5-d][1,2,4]triazin-7-amine] | 1 to 10
3 | CCN1CCC[C@@H](Nc2nnc(-c3ccc(C(F)(F)F)cc3C(N)=O)c3cc(C)nn23)C1 [Compound 372, 2-(7-{[(3R)-1-ethylpiperidin-3-yl]amino}-2-methylpyrazolo[1,5-d][1,2,4]triazin-4-yl)-5-(trifluoromethyl)benzamide] | 10 to 100
4 | CCN1CCC[C@@H](Nc2nnc(-c3ccc(OC)cc3C(F)(F)F)c3cc(C)nn23)C1 [Compound 373, N-[(3R)-1-ethylpiperidin-3-yl]-4-[4-methoxy-2-(trifluoromethyl)phenyl]-2-methylpyrazolo[1,5-d][1,2,4]triazin-7-amine] | < 1
5 | CCN1CCC[C@@H](Nc2nnc(-c3ccc(OC)cc3Cl)c3cc(C)nn23)C1 [Compound 374, 4-(2-chloro-4-methoxyphenyl)-N-[(3R)-1-ethylpiperidin-3-yl]-2-methylpyrazolo[1,5-d][1,2,4]triazin-7-amine] | 1 to 10
6 | CCN1CCC[C@@H](Nc2nnc(-c3ccc(C(F)(F)F)cc3Cl)c3cc(C)nn23)C1 [Compound 375, 4-[2-chloro-4-(trifluoromethyl)phenyl]-N-[(3R)-1-ethylpiperidin-3-yl]-2-methylpyrazolo[1,5-d][1,2,4]triazin-7-amine] | 1 to 10
7 | CCN1CCC[C@@H](Nc2nnc(-c3ccc(Cl)cc3Cl)c3cc(C)nn23)C1 [Compound 376, 4-(2,4-dichlorophenyl)-N-[(3R)-1-ethylpiperidin-3-yl]-2-methylpyrazolo[1,5-d][1,2,4]triazin-7-amine] | 1 to 10
8 | CCN1CCC[C@@H](Nc2nnc(-c3ccc(Cl)cc3)c3cc(C)nn23)C1 [Compound 377, 4-(4-chlorophenyl)-N-[(3R)-1-ethylpiperidin-3-yl]-2-methylpyrazolo[1,5-d][1,2,4]triazin-7-amine] | 1 to 10
9 | CCN1CCC[C@@H](Nc2nnc(-c3ccc(C#N)cc3OC(F)F)c3cc(C)nn23)C1 [Compound 378, 3-(difluoromethoxy)-4-(7-{[(3R)-1-ethylpiperidin-3-yl]amino}-2-methylpyrazolo[1,5-d][1,2,4]triazin-4-yl)benzonitrile] | 1 to 10
10 | CCN1CCC[C@@H](Nc2nnc(-c3ccc(OC)cc3C3CC3)c3cc(C)nn23)C1 [Compound 379, 4-(2-cyclopropyl-4-methoxyphenyl)-N-[(3R)-1-ethylpiperidin-3-yl]-2-methylpyrazolo[1,5-d][1,2,4]triazin-7-amine] | 1 to 10
11 | Cc1cc2c(-c3ccc(C(F)(F)F)cc3OC(F)F)nnc(N[C@H]3C[C@@](C)(O)C3)n2n1 [Compound 380, (1s,3s)-3-({4-[2-(difluoromethoxy)-4-(trifluoromethyl)phenyl]-2-methylpyrazolo[1,5-d][1,2,4]triazin-7-yl}amino)-1-methylcyclobutan-1-ol] | 1 to 10
12 | Cc1cc2c(-c3ccc(C(F)(F)F)cc3OC(F)F)nnc(N[C@@H]3CCCC[C@H]3O)n2n1 [Compound 381, (1R,2R)-2-({4-[2-(difluoromethoxy)-4-(trifluoromethyl)phenyl]-2-methylpyrazolo[1,5-d][1,2,4]triazin-7-yl}amino)cyclohexan-1-ol] | 10 to 100
13 | Cc1cc2c(-c3ccc(C(F)(F)F)cc3OC(F)(F)F)nnc(N[C@@H]3CCCC[C@H]3O)n2n1 [Compound 382, (1R,2R)-2-({2-methyl-4-[2-(trifluoromethoxy)-4-(trifluoromethyl)phenyl]pyrazolo[1,5-d][1,2,4]triazin-7-yl}amino)cyclohexan-1-ol] | 10 to 100
